Source: paper PMC6072501, “N-tert-Prenylation of the indole ring improves the cytotoxicity of a short antagonist G analogue against small cell lung cancer” (MedChemComm, 2017)
Entries after “also recorded” stand apart in the source; their conditions may differ. One block for each compound: values may come before it. *1 amine or outer side, *2 acyl side, *3 side chain or, on linkers, in order; H or OH if unused. Where a SMILES comes first, the peptide text is derived from it. Where no end group is shown, it is not given here. [ ]: non-standard residue; d: D form. X1 = C=CC(C)(C)n1cc(C[C@@H](N[*:1])C(=O)[*:2])c2ccccc21; NMeF = CN[C@@H](Cc1ccccc1)C(=O)O; dNMeF = CN[C@H](Cc1ccccc1)C(=O)O

Key:
[1] = system: H69 small cell lung cancer cell line; test: Cell viability assay (resazurin) on H69 cells; assay type: cell-based, human; settings: 48 h
From the text: Swiss Albino cell line 3T3 and two SCLC cell lines, DMS79 and H69, were selected for screening. 3T3 cells are fibroblast non-cancerous cells and were used to show the selectivity of the peptides for cancer treatment. The DMS79 cell line is a variant cell line model which is more resistant to chemotherapy as it originates from a patient with SCLC who had undergone treatment with cytoxan, vincristine, methotrexate and radiation therapy. On the other hand, H69 represents a chemo-naive SCLC cell line model. Cell viability was assessed by quantifying the reduction of resazurin dye to fluorescent resorufin.[28]–[31] H69 and DMS79 cells were seeded in 96-well plates at a density of 10 000 cells per well and maintained in 10% FBS/RPMI-1640 for 48 hours at 37 °C in a humidified air atmosphere of 5% CO2 in the presence of various peptide concentrations. 3T3 cells were maintained under the same conditions but using 10% FBS/DMEM and a seeding density of 2500 cells per well. The dye was then applied for 5 hours before measuring fluorescence. […] The peptide thus had the potential to be tested in vivo subject to its biocompatibility with plasma.
Growth media, RPMI-1640 (with L-glutamine and NaHCO3) and DMEM, Dulbecco’s PBS (without calcium chloride and magnesium chloride), and Resazurin sodium salt were obtained from Sigma-Aldrich®. Human lung small cell carcinoma (H69 (ECACC 91091802)) and Mouse Swiss Albino embryo fibroblast (3T3 Swiss Albino (ECACC 85022108)) were from European Collection of Authenticated Cell Cultures (ECACC, Public Health England). […]
(§1) Complete medium containing resazurin was used as background. […] Then resazurin (20 µl) was added to each well and kept at 37 °C in a humidified air atmosphere of 5% CO2 for 5 hours before fluorescence readings were recorded. […]
(§2) Assessment of apoptosis was carried out through a fluorescent technique by using Acridine Orange (AO) and Ethidium Bromide (EB) double staining. […] AO emits green fluorescence while EB emits red/orange fluorescence when […]

[2] = system: DMS79 small cell lung cancer cell line; test: Cell viability assay (resazurin) on DMS79 cells; assay type: cell-based, human; settings: 48 h
From the text: (§3) Swiss Albino cell line 3T3 and two SCLC cell lines, DMS79 and H69, were selected for screening. 3T3 cells are fibroblast non-cancerous cells and were used to show the selectivity of the peptides for cancer treatment. The DMS79 cell line is a variant cell line model which is more resistant to chemotherapy as it originates from a patient with SCLC who had undergone treatment with cytoxan, vincristine, methotrexate and radiation therapy. On the other hand, H69 represents a chemo-naive SCLC cell line model. Cell viability was assessed by quantifying the reduction of resazurin dye to fluorescent resorufin.[28]–[31] H69 and DMS79 cells were seeded in 96-well plates at a density of 10 000 cells per well and maintained in 10% FBS/RPMI-1640 for 48 hours at 37 °C in a humidified air atmosphere of 5% CO2 in the presence of various peptide concentrations. […] The dye was then applied for 5 hours before measuring fluorescence. […]
as §1, §2

[3] = system: 3T3 Swiss Albino fibroblasts; assay type: cell-based, mouse; settings: 48 h
From the text: as §3, §1, §2

[4] = phase I clinical trial, cited from earlier work
From the text: Recognising the anti-proliferative action together with other preclinical evidence supporting broad-spectrum neuropeptide antagonism prompted a phase I clinical trial with SPG,[11] the results of which were encouraging. […] This, combined with low potency of the peptide, necessitated prolonged dosing by infusion to maintain therapeutic concentrati ...

[5] = Peptide stability in mouse plasma (HPLC); assay type: in vitro ADME; settings: neat mouse plasma, 37 °C; for stability in mouse plasma over 3 hour incubation: 400 µg/ml, 0 and 3 h, RP-HPLC C8, 220 nm, triplicate
Description: (§4) Plasma drug interaction affects the ability of the drug to distribute into tissues. To determine the extent of plasma binding to peptide 2, equilibrium dialysis (Cyprotex Ltd) was carried out. A 5 μM solution of peptide in PBS at pH 7.5 in 0.5% DMSO was mixed with neat human plasma in a total volume of 0.15 ml. After equilibrium at 37 °C, aliquots were taken from both sides of the membrane to determine the fraction of bound peptide. […] While in circulation, the peptide needs to be stable for a few hours to accumulate in tumours. It is commonly accepted that unmodified peptides are highly prone to protease digestion in plasma, leading to rapid degradation within a few minutes. Peptides 1 and 2 were subjected to stability testing in mouse plasma. The peptides dissolved in neat plasma (0.2 ml) were incubated at 37 °C. Aliquots (20 μl) were taken at 0 and 3 hour intervals in triplicate for analysis by HPLC. […] A plasma stability of 3 hours is considered as a sufficient time window to accumulate in tumour for efficacy studies.
4. Peptides stability in mouse plasma
Eppendorf® tubes were used for sample preparations. HPLC microvials were bought from Sigma-Aldrich®. HPLC analysis was performed using a C8 column (ACE 5 C8 – 250 X 4.6mm id) on a PerkinElmer Series 200 machine.
4.2. Peptides plasma stability
Peptides were added to neat mouse plasma at a concentration of 400 µg/ml and placed inside an incubator at 37 °C for 3 hours. Aliquots (20 µl) were taken at 0 and 3 hour periods. […] Then 80 µl of the supernatant was added to 0.1% TFA/H2O (120 µl) and transferred into a HPLC microvial to be analysed using the C8 column. […]
DMS79 cells were injected subcutaneously into ten CBA nude female mice (bred in house) at 5x10^6 cells/mouse in 0.1 ml of serum free RPMI-1640 medium containing 50% matrigel (Scientific Laboratory Supplies, Surrey, UK) as described in our recent publication (Reference 38). Tumours were measured and mice weighed 3 times a week throughout the study. Tumour volumes were calculated by multiplying the length, width and depth of tumors. […]

[6] = Plasma binding by equilibrium dialysis (Cyprotex Ltd); assay type: in vitro ADME; settings: neat human plasma
Description: as §4

[7] = Aqueous solubility (observation on dosing solutions); assay type: physicochemical; settings: observation while preparing dosing solutions; higher concentration gave significant precipitation
[8] = system: NCI-H69 cells; settings: at 50 μM, serum-free media; cited from earlier work
From the text: (§5) Several other related short chain SP antagonists have been investigated in the literature. […] Recently, Sarvi et al.[19] designed and synthesised a panel of eight substance P-peptide analogues ranging from a pentamer to 11-mer sequences. They compared their IC50 values, relative to SPG, using H345 and H69 cell lines. All an ...

[9] = system: H345 and H69 cell lines; settings: cited from earlier work
From the text: as §5

[10] = system: H69; settings: treatment for 72 hours; cited from earlier work
From the text: Swiss Albino cell line 3T3 and two SCLC cell lines, DMS79 and H69, were selected for screening. 3T3 cells are fibroblast non-cancerous cells and were used to show the selectivity of the peptides for cancer treatment. The DMS79 cell line is a variant cell line model which is more resistant to chemotherapy as it originates from a patient with SCLC who had undergone treatment with cytoxan, vincristine, methotrexate and radiation therapy. On the other hand, H69 represents a chemo-naive SCLC cell line model. Cell viability was assessed by quantifying the reduction of resazurin dye to fluorescent re ...

[11] = system: H345 xenografts; settings: subcutaneous injections, 25 mg kg^–1; cited from earlier work
Description: The relative tumour volume (RTV) as a percentage was calculated by dividing the tumour volumes on measured days by the tumour volume on day 0, before treatment. […] Excluding this single animal from the treated group, the tumour growth inhibition (TGI, Fig. 5) was calculated at day 7 as TGI (%) = (1 – T/C) × 100, where T indicates the mean tumour volume (mm^3) of the test group and C indicates the mean tumour volume of the vehicle-treated group. At day 7, the tumour volumes of pre ...

[12] = up to the concentration of 30 μM, resazurin

Compound: D-MePhe–D-Trp–Phe–D-Trp–Leu-MPA [NY3521]
inhibition of growth of NCI-H69 cells [8]: completely inhibited

Compound: D-MePhe–D-Trp–Phe–D-Trp–LeuΨ(CH2NH)Leu-NH2 [NY3460]
inhibition of growth of NCI-H69 cells [8]: completely inhibited

Compound: [dR]PKP[dW]Q[dW]F[dW][dL]L [11-mer]
potency relative to SPG (IC50 values) [9]: 3 to 4 fold
IC50 [10]: 4.96 ± 0.64 µM
tumour growth [11]: significant reduction in tumour growth

More lines, main results first:

IC50 [1]: > 30 µM
IC50 [2]: > 30 µM
Compound: CSCC[C@H](NC(=O)[C@H](CC(C)C)NC(=O)[C@@H](Cc1c[nH]c2ccccc12)NC(=O)[C@H](Cc1ccccc1)N(C)C(=O)[C@@H](Cc1c[nH]c2ccccc12)NC(=O)[C@@H](N)CCCNC(=N)N)C(N)=O [SPG, Arg–D-Trp–NMePhe–D-Trp–Leu–Met-NH2] (H-R[dW][NMeF][dW]LM-NH2)
inhibitory effect (cytotoxicity profile), H69 [1, 12]: no inhibitory effect
inhibitory effect (cytotoxicity profile), DMS79 [2, 12]: no inhibitory effect
IC50 [3]: > 30 µM
elimination from plasma ([4]; resulting in poor systemic bioavailability): quickly eliminated from plasma
toxicity [4]: minimal toxicity

stability in mouse plasma over 3 hour incubation [5]: remained largely intact
Compound: CN[C@H](Cc1ccccc1)C(=O)N[C@H](Cc1c[nH]c2ccccc12)C(=O)N[C@@H](Cc1ccccc1)C(=O)N[C@H](Cc1c[nH]c2ccccc12)C(=O)N[C@@H](CC(C)C)C(N)=O [peptide 1] (H-[dNMeF][dW]F[dW]L-NH2)

fraction unbound at 5 µM ([6]; 5 μM peptide in PBS pH 7.5 with 0.5% DMSO, total volume 0.15 ml, 37 °C, mean): 0.728 ± 0.124
peptide unbound ([6]; 5 μM, PBS pH 7.5, 37 °C): 73%
time of resisting degradation by plasma ([5]; HPLC): at least 3 hours
Compound: C=CC(C)(C)n1cc(C[C@@H](NC(=O)[C@H](Cc2ccccc2)NC(=O)[C@@H](Cc2c[nH]c3ccccc23)NC(=O)[C@@H](Cc2ccccc2)NC)C(=O)N[C@@H](CC(C)C)C(N)=O)c2ccccc21 [peptide 2, NMeDPhe-DTrp-Phe-DTrp(N-tert-prenyl)-Leu-NH2] (H-[dNMeF][dW]F[X1]L-NH2)
cytotoxicity enhancement of 2 over pentamer 1 (comparison of IC50 values) ([1]; depending on the cell line (DMS79 and H69)): 5 to 10 fold
stability in mouse plasma over 3 hour incubation [5]: remained largely intact; also recorded: a small percentage of degradation was noted
aqueous solubility [7]: limited aqueous solubility; also recorded: lower aqueous solubility than SPG
